The values that follow come from PMC10333884, “Large‐scale phosphomimetic screening identifies phospho‐modulated motif‐based protein interactions” (Molecular Systems Biology, 2023).

Residues, ends and D or L forms follow the SMILES beside them.

The target in assay [1] is T1, GGA1 VHS (Homo sapiens, UniProt Q9UJY5).
T1 construct: GGA1_VHS__Q9UJY5_1_157; GST (cleaved yes); made in house; host or cells: Escherichia coli BL21-Gold(DE3)
T1 sequence (Q9UJY5 1-157): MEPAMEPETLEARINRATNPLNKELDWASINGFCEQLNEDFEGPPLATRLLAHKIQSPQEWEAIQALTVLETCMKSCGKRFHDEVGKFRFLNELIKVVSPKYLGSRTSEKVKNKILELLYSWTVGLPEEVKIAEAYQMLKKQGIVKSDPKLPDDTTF
Briefly: Phosphomimetic ProP-PD selection, GGA1 VHS. As to conditions: phosphomimetic enrichment score of the wild-type/phosphomimetic (E) pair at the phosphosite, PM_HD2 phage selection; positive = phosphomimetic enhances binding; P-value in brackets not taken. The procedure:
Selections using the PM_HD2 phage library were performed as described previously with minor modification to the original protocol. The corresponding tag protein (either GST or MBP) was first used during negative selections. Selections were run for 4 days. • Bait and tag proteins (10–15 μg in 100 μl PBS) were immobilised in 96‐well MaxiSorb plate (NUNC) o.n. at 4°C. • Escherichia coli OmniMax bacteria were grown in 2YT medium supplemented with tetracycline (100 μg/ml) at 37°C and 200 rpm. • Plates with immobilised bait/tag proteins were blocked with 0.5% BSA in PBS for 1 h at 4°C. • Phage library (10 μl/well) was prepared by diluting 10× with PBS and adding one‐fourth of the volume of PEG/NaCl. For phage precipitation, prepared library was incubated for 10 min on ice followed by centrifugation for 10 min at 10,000 × g at 4°C. […]
Based on the results from phage pool ELISAs, samples from selection Day 3 and 4 were selected for NGS, as described previously (Benz et al, [2022]). • Peptide coding regions were amplified and dual‐barcoded by PCR. […] From the columns, samples were eluted with 30 μl TE (10 mM Tris–HCl, 1 mM EDTA. pH 7.5) buffer and quantified with Quant‐iT PicoGreen dsDNA Assay Kit. • Samples were sequenced on MiSeq (MSC 2.5.0.5/RTA 1.18.54) with a 151 nt (Read1) setup using “Version3” chemistry. […]

Assay [2] has as its target T1, GGA1 VHS. Briefly: FP displacement assay, GGA1 VHS. The note with it: FP displacement, probe FITC-IGF2R 5 nM, 50 mM sodium phosphate pH 7.4, room temperature; at least three technical replicates; read-out: KD values ± SEM. Format: binding. The procedure: (§1) FP experiments were performed as described previously (Kliche et al, [2021]). Shortly, in order to monitor the binding event, FITC‐labelled peptides were used (excitation 495 nm, emission: 535 nm) and the FP signal was recorded in mP on a SpectraMax iD5 Multi‐Mode Microplate Reader (Molecular Devices) by measuring the emitted light in two angels. The measurements were performed at room temperature and prepared in nonbinding black half area 96‐well microplates (Corning®; 50 μl/well). For measuring direct binding, that is saturation curves, a 1:1 dilution series of protein domain (25 μl/well) was generated in 50 mM sodium phosphate buffer pH 7.4 and the measurement performed with 5 nM FITC‐labelled peptide (25 μl/well). The buffer‐corrected values were subsequently plotted with PRISM and fitted to the quadratic equation (Gianni et al, [2005]).
(§2) The 1:1 dilution series in this experiment was performed with the unlabelled peptide in 50 mM sodium phosphate buffer pH 7.4, so that each well‐contained unlabelled peptide (25 μl) at a certain concentration and pre‐formed complex (25 μl). The KD values of this indirectly monitored binding event were calculated as described previously (Nikolovska‐Coleska et al, [2004]). All measurements were at least in technical triplicates as well as biological duplicates when indicated. An amplitude shift between repeat measurements in the displacement experiments was occasionally observed due to variations in the protein preparations. If that was the case, the “active” protein concentration was back‐calculated according to the quadratic equation from the saturation curves performed in parallel. By comparing the active protein concentrations in the complex between different protein preparations, the amplitude was normalised.

Assay [3] deals with T1, GGA1 VHS. The assay can be described thus: ITC, GGA1 VHS. More on the design: Ka: unit not given beside the values. Format: binding. In general terms: ITC needs no label: the signal is the heat of the interaction.
Assay [4] has as its target T2, KPNA4 ARM Major (Homo sapiens, UniProt O00629).
T2 construct: 60-487; GST (cleaved yes); made in house; host or cells: Escherichia coli BL21-Gold(DE3)
The assay can be described thus: FP displacement assay, KPNA4 ARM major pocket. Format: binding. The note with it: for Kd: major pocket probe FITC-MYC 5 nM, 50 mM sodium phosphate pH 7.4, room temperature, at least three technical replicates, read-out: KD values ± SEM. Here is the method: as §1, §2

Assay [5] has as its target T3, KPNA4 ARM minor (Homo sapiens, UniProt O00629).
T3 construct: 60-487; GST (cleaved yes); made in house; host or cells: Escherichia coli BL21-Gold(DE3)
Briefly: FP displacement assay, KPNA4 ARM minor pocket. Format: binding. The note with it: for Kd: minor pocket probe FITC-NCOR2 5 nM, 50 mM sodium phosphate pH 7.4, room temperature, at least three technical replicates, read-out: KD values ± SEM. Here is the method:
as §1, §2

For assay [6], the system named is KPNA4 ARM. The assay can be described thus: Phosphomimetic ProP-PD selection, KPNA4 ARM. The note with it: phosphomimetic enrichment score of the wild-type/phosphomimetic (E) pair at the phosphosite, PM_HD2 phage selection; same score in the major and minor pocket; P-value in brackets not taken. The format is binding, human.

T3 sequence (O00629 60-487): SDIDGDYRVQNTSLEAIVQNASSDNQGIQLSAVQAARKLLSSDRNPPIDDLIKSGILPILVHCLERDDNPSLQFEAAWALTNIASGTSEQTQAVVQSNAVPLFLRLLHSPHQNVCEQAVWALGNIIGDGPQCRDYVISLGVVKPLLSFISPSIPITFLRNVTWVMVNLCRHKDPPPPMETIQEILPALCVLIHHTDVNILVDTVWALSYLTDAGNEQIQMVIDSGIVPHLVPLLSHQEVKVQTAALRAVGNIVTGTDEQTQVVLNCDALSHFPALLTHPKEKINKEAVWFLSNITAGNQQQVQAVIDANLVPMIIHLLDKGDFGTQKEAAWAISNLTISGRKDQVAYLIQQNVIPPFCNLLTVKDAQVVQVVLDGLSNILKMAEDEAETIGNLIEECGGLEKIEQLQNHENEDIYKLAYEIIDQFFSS
T2 sequence (O00629 60-487): as above

The term Kd denotes the free concentration of one partner at which half of the binding sites on the other are occupied at equilibrium, for simple one-to-one binding. Consider `CC[C@H](C)[C@H](NC(=O)[C@H](CC(=O)O)NC(=O)[C@H](CC(=O)O)NC(=O)[C@H](CO)NC(=O)[C@@H](NC(=O)[C@@H]1CCCN1C(=O)[C@H](CO)NC(=O)[C@H](CCCCN)NC(=O)[C@H](Cc1ccc(O)cc1)NC(C)=O)[C@@H](C)O)C(=O)N[C@@H](CCC(=O)O)C(=O)N[C@@H](CC(C)C)C(=O)N[C@@H](CC(C)C)C(=O)N[C@@H](Cc1c[nH]cn1)C(=O)N[C@@H](CCC(=O)O)C(=O)N[C@@H](CO)C(=O)N[C@@H](CCC(N)=O)C(=O)N[C@@H](CO)C(N)=O` [RNF11_6–21 E] (Ac-YKSPTSDDIELLHESQS-NH2), for which, in assay [1], the PES is recorded as 4.9 (0.009). Moreover, the Kd amounted to 1000 µM in assay [2] and 101 µM in assay [3] (ITC (iTC200), 50 mM sodium phosphate pH 7.4, 1 mM DTT, average of the runs, technical duplicates). Besides, the Ka in assay [3] (ITC single run: date 200220, injection 1) worked out at 10600; in assay [3] (ITC single run: date 200220, injection 2), 9350.
On to `CC(=O)N[C@@H](CC(=O)O)C(=O)N[C@H](C(=O)N[C@@H](CCC(=O)O)C(=O)N[C@@H](Cc1c[nH]cn1)C(=O)NCC(=O)NCC(=O)N[C@@H](CCCCN)C(=O)N[C@@H](CCCNC(=N)N)C(=O)N[C@@H](CCC(=O)O)C(=O)N[C@@H](CCCNC(=N)N)C(=O)N[C@@H](CC(C)C)C(=O)N[C@H](C(=O)N1CCC[C@H]1C(=O)N[C@H](C(=O)N[C@@H](CO)C(=O)N[C@@H](Cc1ccc(O)cc1)C(N)=O)C(C)C)[C@@H](C)O)C(C)C` [SQSTM1_258–272 E] (Ac-DVEHGGKRERLTPVSY-NH2), for which the Kd in assay [4] was 5.3 ± 0.4 µM; in assay [5], 41 ± 2 µM. Besides, in assay [6], the PES is −3 (0.0096).
Consider `CC(=O)N[C@@H](CCC(=O)O)C(=O)N[C@H](C(=O)N[C@@H](Cc1ccc(O)cc1)C(=O)N[C@@H](Cc1ccc(O)cc1)C(=O)N[C@@H](CC(C)C)C(=O)N[C@@H](CO)C(=O)N[C@@H](CC(=O)O)C(=O)N[C@@H](CCC(=O)O)C(=O)N1CCC[C@H]1C(=O)N[C@@H](CC(C)C)C(=O)N[C@@H](CC(C)C)C(=O)NCC(=O)N1CCC[C@H]1C(=O)N1CCC[C@H]1C(=O)N[C@H](C(=O)NCC(N)=O)C(C)C)[C@@H](C)O` [GTSE1_145–160 E] (Ac-ETYYLSDEPLLGPPVG-NH2), for which the PES in assay [1] was 9 (0.00012). Further, the Kd in assay [2] was found to be 199 ± 4 µM.
One may read the IC50 as the concentration that inhibits the measured activity by half. Turning to `CC(=O)N[C@@H](CC(N)=O)C(=O)N[C@@H](Cc1ccc(O)cc1)C(=O)N[C@@H](C)C(=O)N1CCC[C@H]1C(=O)N1CCC[C@H]1C(=O)N[C@H](C(=O)N[C@@H](CCCCN)C(=O)N[C@@H](CCCNC(=N)N)C(=O)N[C@@H](CCC(=O)O)C(=O)N[C@@H](CCCNC(=N)N)C(=O)N[C@@H](CCC(=O)O)C(=O)N[C@@H](CO)C(=O)N[C@@H](CO)C(=O)N[C@@H](CC(C)C)C(=O)N[C@H](C(=O)N[C@@H](CCC(N)=O)C(N)=O)[C@@H](C)O)C(C)C` [RANBP3_114–129 E (p + 5)] (Ac-NYAPPVKRERESSLTQ-NH2), the IC50 in assay [4] (Fig 3E, KPNA4 ARM major, technical triplicates, read-out: IC50 values of displacement curves, with SEM) was found to be 7.1 ± 0.5 µM; in assay [5] (Fig 3E, KPNA4 ARM minor, technical triplicates, read-out: IC50 values of displacement curves, with SEM) it was 290 ± 16 µM. Besides, the Kd came to 0.8 ± 0.03 µM in assay [4] and 61 ± 2 µM in assay [5]. In addition, the PES in assay [6] is listed as −7 (0.00012).
For the compound `CC(=O)N[C@@H](CC(=O)O)C(=O)N[C@@H](CC(C)C)C(=O)N[C@@H](CC(C)C)C(=O)N[C@@H](CCC(=O)O)C(=O)N[C@@H](CO)C(=O)N1CCC[C@H]1C(=O)N[C@@H](CC(=O)O)C(=O)N[C@H](C(=O)NCC(=O)N[C@@H](CC(C)C)C(=O)N[C@@H](CC(C)C)C(=O)N[C@@H](CCCCN)C(=O)N[C@@H](CC(C)C)C(=O)N[C@@H](C)C(=O)N[C@@H](CO)C(=O)N[C@@H](Cc1ccc(O)cc1)C(N)=O)C(C)C` [JUN59–73 E] (Ac-DLLESPDVGLLKLASY-NH2), the PES in assay [1] is reported as 3.6 (0.023). In addition, the Kd in assay [2] was found to be 450 ± 50 µM.
As for `CC(=O)NCC(=O)N[C@@H](C)C(=O)N[C@@H](CCC(=O)O)C(=O)N1CCC[C@H]1C(=O)N[C@@H](C)C(=O)N[C@@H](CC(C)C)C(=O)N[C@@H](CCCCN)C(=O)N[C@@H](CCCNC(=N)N)C(=O)N[C@@H](CO)C(=O)N[C@@H](Cc1c[nH]cn1)C(=O)N[C@@H](CO)C(=O)N[C@@H](CC(=O)O)C(=O)N[C@@H](CO)C(=O)N[C@@H](Cc1ccc(O)cc1)C(N)=O` [CDC25A114–125 E] (Ac-GAEPALKRSHSDSY-NH2), the Kd in assay [4] was determined as 0.75 ± 0.03 µM; in assay [5], 2.3 ± 0.3 µM. In assay [6], the PES is given as 10 (0.000006).
